Reference: patent US12516056B2, “Compounds for inhibition of janus kinase 1” (MANKIND PHARMA LTD., priority 2019, dated 2026)
Like-named read-outs stand apart in the source and are kept apart here.

Assays:
[1] = test system: STAT5 phosphorylation by IL-2 in HT-2 cells; assay: STAT5 phosphorylation by IL-2 in HT-2 cells (HTRF); assay type: cell-based; details: HT2, HT-2 cells
Outline: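 Readout is HTRF detection of phospho-STAT5 in lysates, corrected for signal from unstimulated cells. Before lysis, HT-2 cells starved in 10% FBS medium received compound for 30 min (0.2% DMSO final, 37 °C), followed by 50 U/ml recombinant human IL-2 for 20 min.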

[2] = test system: collagen induced mouse arthritis model; assay: Mouse model of rheumatoid arthritis (collagen induced arthritis); assay type: in vivo; details: orally dosed, QD for 21 days; reference filgotinib
Source text: Rheumatoid arthritis (RA) is an autoimmune disease that can cause joint pain and damage throughout the body. Several cytokines such as IL-6 and IFN-γ activate the Janus kinase/signal transducers and activators of transcription (JAK/STAT) pathway. Inhibition of JAK/STAT pathway is considered as one of the therapeutic options for treatment of rheumatoid arthritis. Rodent models of arthritis can be used to evaluate the therapeutic potential of compounds dosed preventatively or therapeutically. These models include but are not limited to mouse or rat collagen-induced arthritis, rat adjuvant-induced arthritis, and collagen antibody-induced arthritis.
Compounds described herein are tested for JAK/STAT pathway inhibition driven efficacy in collagen induced mouse arthritis model. Compounds were orally dosed, QD for 21 days and at the end of the study, clinical symptoms, body weight and histopathology of ankle and paws were measured. Arthritis score was calculated for the compounds as well as reference standard, filgotinib.

[3] = test system: Imiquimod induced dermatitis in mice; assay: Mouse model of Imiquimod induced psoriasis; assay type: in vivo, Female BALB/c mice; details: 3% topical, QD; for back skin thickness / cumulative psoriasis score compared to vehicle / ear thickness: IMQ induced psoriasis, mice
Procedure: Imiquimod (IMQ) induced dermatitis closely resembles human psoriasis lesions not only with regard to phenotypic and histological characteristics but also in the development of the lesions. IMQ is a ligand for toll-like receptor 7 (TLR7) and TLR8, and is a potent immune activator. […] Migration of activated dermal dendritic cells to lymph nodes in skin triggers a sequence of events leading to late phase of psoriasis. Compounds described herein are tested for JAK inhibition driven efficacy in Imiquimod induced dermatitis in mice.
Female BALB/c mice were topically dosed with 3% cream formulation containing test compounds. After four hours of test compound administration, 5% Imiquimod was applied on back skin and right ear for five days. On day 6, post dosing with test compounds, the severity of psoriasis was monitored and graded following Psoriasis Area and Severity Index (PASI). Efficacies of the compounds were evaluated based on PASI score. Redness, thickness and scaling of back skin and ear were assessed among the groups for scoring.

[4] = test system: oxazolone induced colitis; assay: Murine model of oxazolone induced colitis; assay type: in vivo, Male BALB/c mice; details: 30 mpk, PO, BID
[5] = IL-2 50 U/ml, pSTAT5 HTRF, read-out: Cell Based Assay (μM) HT-2/IL-2/pSTAT5
[6] = IL-2 stimulation, read-out: Cell based IC50 (μM) HT-2/IL-2

| IC50 [1, 5] [µM] | IC50 [1, 6] [µM] | SMILES | efficacy (arthritis score) in collagen induced mouse arthritis model [2] | back skin thickness [3] | cumulative psoriasis score compared to vehicle [3] | ear thickness [3] | efficacy compared to 1133 and reference compound filgotinib (psoriasis model) [3] | efficacy in comparison to Filgotinib (colitis model) [4] |
| --- | --- | --- | --- | --- | --- | --- | --- | --- |
| 2.3 | 2.3 | CN1CCC(C(O)(c2ccc(-n3cc(-c4ccnc5[nH]cnc45)cn3)nc2)C(F)(F)F)CC1 (centres unmarked) [Example 1133, 1-(6-(4-(3H-imidazo[4,5-b]pyridin-7-yl)-1H-pyrazol-1-yl)pyridin-3-yl)-2,2,2-trifluoro-1-(1-methylpiperidin-4-yl)ethanol] | very good efficacy | significant decrease | statistically significant decrease | significant decrease |  |  |
| 0.75 | 0.7 | CC(C)NC(=O)CC[C@@H](c1ccc(-n2cc(-c3ccnc4[nH]cnc34)cn2)nc1)C(F)(F)F [Example 1215, (S)-4-(6-(4-(3H-imidazo[4,5-b]pyridin-7-yl)-1H-pyrazol-1-yl)pyridin-3-yl)-5,5,5-trifluoro-N-isopropylpentanamide] | very good efficacy | significant decrease | statistically significant decrease | significant decrease | better efficacy | better efficacy |
